This test addresses T1, human ferroportin (Homo sapiens, UniProt Q9NP59).
T1 construct: luciferase reporter (probably NanoLuc: read with the Nano-Glo Luciferase Assay System); expressed in transfected cells; host or cells: CHO cells, stably transfected, doxycycline-inducible expression
T1 sequence (Q9NP59 1-571): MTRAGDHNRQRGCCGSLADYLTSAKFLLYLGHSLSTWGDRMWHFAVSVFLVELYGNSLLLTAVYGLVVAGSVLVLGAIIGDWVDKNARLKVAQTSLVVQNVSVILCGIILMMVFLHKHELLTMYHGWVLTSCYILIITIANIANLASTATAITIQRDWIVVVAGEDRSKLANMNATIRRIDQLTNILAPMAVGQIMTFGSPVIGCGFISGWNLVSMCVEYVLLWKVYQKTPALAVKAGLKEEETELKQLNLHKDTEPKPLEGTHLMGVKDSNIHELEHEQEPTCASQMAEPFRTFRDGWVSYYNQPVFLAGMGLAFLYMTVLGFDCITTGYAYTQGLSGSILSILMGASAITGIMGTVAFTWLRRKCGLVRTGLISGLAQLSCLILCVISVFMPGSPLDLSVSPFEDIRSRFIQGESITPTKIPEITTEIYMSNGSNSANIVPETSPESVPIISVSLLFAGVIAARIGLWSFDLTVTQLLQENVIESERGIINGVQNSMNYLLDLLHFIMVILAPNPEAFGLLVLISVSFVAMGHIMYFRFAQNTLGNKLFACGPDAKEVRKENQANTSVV
The experiment in a line: In-vitro ferroportin internalization assay (luciferase reporter). The format is cell-based. The following applies: average pEC50; stably-transfected CHO cell line expressing human ferroportin tagged to a luciferase reporter; 6 h incubation with test compounds. As for the experimental part: The protocol for this assay is generally as described in WO2018/128828, incorporated herein by reference in its entirety. Functional internalization of ferroportin protein was measured using a stably-transfected CHO cell line expressing the human ferroportin tagged to a luciferase reporter. Cells were plated for 24 h in the presence of ferric ammonium citrate (FAC). Ferroportin protein expression was induced with doxycycline for 24 h. The next day, the compounds were added. Test compounds were dissolved in DMSO. Cells were incubated with the test compounds for 6 h, and subsequently luciferase activity was measured using the Nano-Glo Luciferase Assay System and Glomax (Promega, Madison, Wis.).
The average pEC50 was determined for the test compounds.
(In a reporter assay the amount or activity of a reporter protein is the signal.)
As for `Fc1cccnc1CNc1ncnc2sc(CCNCCc3nc4ccccc4[nH]3)nc12` [Compound 1, 2-(2-{[2-(1H-1,3-benzodiazol-2-yl)ethyl]amino}ethyl)-N-[(3-fluoropyridin-2-yl)methyl]-[1,3]thiazolo[5,4-d]pyrimidin-7-amine], the pEC50 (usually the EC50 on a negative log10 scale, so that one unit is a factor of ten) is reported as 7.8.
`Fc1cccnc1CNc1ncnc2oc(CCNCCc3nc4ccccc4[nH]3)nc12` [Compound 2, 2-(2-{[2-(1H-1,3-benzodiazol-2-yl)ethyl]amino}ethyl)-N-[(3-fluoropyridin-2-yl)methyl]-[1,3]oxazolo[5,4-d]pyrimidin-7-amine]: the negative logarithm of the EC50 (pEC50) was 7.3.
The same measure for `Fc1ccc2[nH]c(CCNCCc3nc4c(NCc5ncccc5F)ncnc4s3)nc2c1` [Compound 3, 2-(2-{[2-(5-fluoro-1H-1,3-benzodiazol-2-yl)ethyl]amino}ethyl)-N-[(3-fluoropyridin-2-yl)methyl]-[1,3]thiazolo[5,4-d]pyrimidin-7-amine]: 7.1; for `c1ccc(CNc2ncnc3sc(CCNCCc4nc5ccccc5[nH]4)nc23)cc1` [Compound 4, 2-(2-{[2-(1H-1,3-benzodiazol-2-yl)ethyl]amino}ethyl)-N-benzyl-[1,3]thiazolo[5,4-d]pyrimidin-7-amine]: 6.6.
Regarding `c1ccc(CNc2ncnc3sc(CCNCCc4nc5ccccc5[nH]4)nc23)nc1` [Compound 5, 2-(2-{[2-(1H-1,3-benzodiazol-2-yl)ethyl]amino}ethyl)-N-[(pyridin-2-yl)methyl]-[1,3]thiazolo[5,4-d]pyrimidin-7-amine], the negative-log EC50 (pEC50) came to 6.8.
Turning to `Clc1cccnc1CNc1ncnc2sc(CCNCCc3nc4ccccc4[nH]3)nc12` [Compound 6, 2-(2-{[2-(1H-1,3-benzodiazol-2-yl)ethyl]amino}ethyl)-N-[(3-chloropyridin-2-yl)methyl]-[1,3]thiazolo[5,4-d]pyrimidin-7-amine], the negative-log EC50 (pEC50) is on record as 7.8.
The figure for `Fc1cccnc1CNc1ncnc2sc(CCNCc3nc4ccccc4[nH]3)nc12` [Compound 7, 2-(2-{[(1H-1,3-benzodiazol-2-yl)methyl]amino}ethyl)-N-[(3-fluoropyridin-2-yl)methyl]-[1,3]thiazolo[5,4-d]pyrimidin-7-amine] is 6.7; for `Fc1ccc(CNc2ncnc3sc(CCNCCc4nc5ccccc5[nH]4)nc23)nc1` [Compound 8, 2-(2-{[2-(1H-1,3-benzodiazol-2-yl)ethyl]amino}ethyl)-N-[(5-fluoropyridin-2-yl)methyl]-[1,3]thiazolo[5,4-d]pyrimidin-7-amine] it is 6.4; for `c1cnc(CNc2ncnc3sc(CCNCCc4nc5ccccc5[nH]4)nc23)nc1` [Compound 9, 2-(2-{[2-(1H-1,3-benzodiazol-2-yl)ethyl]amino}ethyl)-N-[(pyrimidin-2-yl)methyl]-[1,3]thiazolo[5,4-d]pyrimidin-7-amine] it is 6.3.
The same measure for `CN(CCc1nc2ccccc2[nH]1)CCc1nc2c(NCc3ncccc3F)ncnc2s1` [Compound 10, 2-(2-{[2-(1H-1,3-benzodiazol-2-yl)ethyl](methyl)amino}ethyl)-N-[(3-fluoropyridin-2-yl)methyl]-[1,3]thiazolo[5,4-d]pyrimidin-7-amine]: 5.7; for `COc1cccnc1CNc1ncnc2sc(CCNCCc3nc4ccccc4[nH]3)nc12` [Compound 11, 2-(2-{[2-(1H-1,3-benzodiazol-2-yl)ethyl]amino}ethyl)-N-[(3-methoxypyridin-2-yl)methyl]-[1,3]thiazolo[5,4-d]pyrimidin-7-amine]: 6.7; for `Cc1cccnc1CNc1ncnc2sc(CCNCCc3nc4ccccc4[nH]3)nc12` [Compound 12, 2-(2-{[2-(1H-1,3-benzodiazol-2-yl)ethyl]amino}ethyl)-N-[(3-methylpyridin-2-yl)methyl]-[1,3]thiazolo[5,4-d]pyrimidin-7-amine]: 7.3.
The same measure for `Fc1cccnc1CNc1nccc2oc(CCNCCc3nc4ccccc4[nH]3)nc12` [Compound 13, 2-(2-{[2-(1H-1,3-benzodiazol-2-yl)ethyl]amino}ethyl)-N-[(3-fluoropyridin-2-yl)methyl]-[1,3]oxazolo[4,5-c]pyridin-4-amine]: 8; for `Fc1cccnc1CNc1nccc2sc(CCNCCc3nc4ccccc4[nH]3)nc12` [Compound 14, 2-(2-{[2-(1H-1,3-benzodiazol-2-yl)ethyl]amino}ethyl)-N-[(3-fluoropyridin-2-yl)methyl]-[1,3]thiazolo[4,5-c]pyridin-4-amine]: 7.8.
As for `Fc1cccnc1CNc1ncnc2sc(CCNCCc3nc4c(F)cccc4[nH]3)nc12` [Compound 15, 2-(2-{[2-(4-fluoro-1H-1,3-benzodiazol-2-yl)ethyl]amino}ethyl)-N-[(3-fluoropyridin-2-yl)methyl]-[1,3]thiazolo[5,4-d]pyrimidin-7-amine], the pEC50 amounted to 6.8.
`Fc1cccnc1CNc1ncnc2sc(CCNCCc3nc4ccccc4o3)nc12` [Compound 16, 2-(2-{[2-(1,3-benzoxazol-2-yl)ethyl]amino}ethyl)-N-[(3-fluoropyridin-2-yl)methyl]-[1,3]thiazolo[5,4-d]pyrimidin-7-amine] had a pEC50 of 5.6.
The figure for `[N-]=[N+]=Nc1cccnc1CNc1ncnc2sc(CCNCCc3nc4ccccc4[nH]3)nc12` [Compound 17, N-[(3-azidopyridin-2-yl)methyl]-2-(2-{[2-(1H-1,3-benzodiazol-2-yl)ethyl]amino}ethyl)-[1,3]thiazolo[5,4-d]pyrimidin-7-amine] is 7.7; for `COc1nc(NCc2ncccc2F)c2nc(CCNCCc3nc4ccccc4[nH]3)sc2n1` [Compound 18, 2-(2-{[2-(1H-1,3-benzodiazol-2-yl)ethyl]amino}ethyl)-N-[(3-fluoropyridin-2-yl)methyl]-5-methoxy-[1,3]thiazolo[5,4-d]pyrimidin-7-amine] it is 5.7; for `COc1cc2sc(CCNCCc3nc4ccccc4[nH]3)nc2c(NCc2ncccc2F)n1` [Compound 19, 2-(2-{[2-(1H-1,3-benzodiazol-2-yl)ethyl]amino}ethyl)-N-[(3-fluoropyridin-2-yl)methyl]-6-methoxy-[1,3]thiazolo[4,5-c]pyridin-4-amine] it is 6.2.
The same measure for `Fc1cccnc1CNc1ncnc2sc(C3CN(CCc4nc5ccccc5[nH]4)C3)nc12` [Compound 20, 2-{1-[2-(1H-1,3-benzodiazol-2-yl)ethyl]azetidin-3-yl}-N-[(3-fluoropyridin-2-yl)methyl]-[1,3]thiazolo[5,4-d]pyrimidin-7-amine]: 7.5; for `Nc1nc(NCc2ncccc2F)c2nc(CCNCCc3nc4ccccc4[nH]3)sc2n1` [Compound 21, 2-(2-{[2-(1H-1,3-benzodiazol-2-yl)ethyl]amino}ethyl)-N7-[(3-fluoropyridin-2-yl)methyl]-[1,3]thiazolo[5,4-d]pyrimidine-5,7-diamine]: 6.2; for `C#CCCC1(CCC(=O)Nc2ccc3[nH]c(CCNCCc4nc5c(NCc6ncccc6F)ncnc5s4)nc3c2)N=N1` [Compound 22, 3-[3-(but-3-yn-1-yl)-3H-diazirin-3-yl]-N-[2-(2-{[2-(7-{[(3-fluoropyridin-2-yl)methyl]amino}-[1,3]thiazolo[5,4-d]pyrimidin-2-yl)ethyl]amino}ethyl)-1H-1,3-benzodiazol-5-yl]propanamide]: 6.5.
The same measure for `Oc1nc(NCc2ncccc2F)c2nc(CCNCCc3nc4ccccc4[nH]3)sc2n1` [Compound 23, 2-(2-{[2-(1H-1,3-benzodiazol-2-yl)ethyl]amino}ethyl)-7-{[(3-fluoropyridin-2-yl)methyl]amino}-[1,3]thiazolo[5,4-d]pyrimidin-5-ol]: 8.8; for `CC(CNCCc1nc2ccccc2[nH]1)c1nc2c(NCc3ncccc3F)ncnc2s1` (centres unmarked) [Compound 24, 2-(1-{[2-(1H-1,3-benzodiazol-2-yl)ethyl]amino}propan-2-yl)-N-[(3-fluoropyridin-2-yl)methyl]-[1,3]thiazolo[5,4-d]pyrimidin-7-amine]: 5.8.
Take `Fc1cccnc1CNc1ncnc2sc(C3(F)CN(CCc4nc5ccccc5[nH]4)C3)nc12` [Compound 25, 2-{1-[2-(1H-1,3-benzodiazol-2-yl)ethyl]-3-fluoroazetidin-3-yl}-N-[(3-fluoropyridin-2-yl)methyl]-[1,3]thiazolo[5,4-d]pyrimidin-7-amine]: the pEC50 is recorded as 6.3.
The same measure for `C[C@H](Cc1nc2c(NCc3ncccc3F)ncnc2s1)NCCc1nc2ccccc2[nH]1` [Compound 26, 2-[(2R)-2-{[2-(1H-1,3-benzodiazol-2-yl)ethyl]amino}propyl]-N-[(3-fluoropyridin-2-yl)methyl]-[1,3]thiazolo[5,4-d]pyrimidin-7-amine]: 6.5.

The record behind these values is patent US11286243B2 (GLOBAL BLOOD THERAPEUTICS, INC., priority 2018, dated 2022).
